In general, IC50 refers to the concentration that inhibits the measured activity by half.

Where a name gives a salt, the structure may show the parent alone. Where only a bound is given, the exact number is not on record here.

Assay [1] has as its system TT Cell. The experiment in a line: Cell inhibitory activity test (CCK8). The assay is classed as cell-based. The note with it: Homo sapiens, TT, Table 3, 72 hours incubation. The protocol: Cell Inhibitory Activity Test
1. preparing 90 μl of cell suspension in a 96-well plate with 4000 cells/well. Pre-incubating the culture plate in an incubator for 24 hours (37° C., 5% CO2).
2. adding 10 μl of test compounds of different concentrations to each well of cells, and each compound has multiple wells.
3. incubating the culture plate in the incubator for 72 hours.
4. adding 10 μl of CCK8 solution to each well (be careful not to generate bubbles in the well, otherwise they would affect the reading of the OD value).
5. incubating the culture plate in the incubator for 1-2 hours.
6. measuring the absorbance at 450 nm with a microplate reader.
7. according to the compound concentration and absorbance value, GraphpadPrism software was used to calculate the IC50 of each compound.

Assay [2] deals with T1, RET (V804M) (Homo sapiens, UniProt P07949, V804M).
T1 construct: purchased Signalchem R02-12GG
T1 sequence (P07949 29-1114 V804M): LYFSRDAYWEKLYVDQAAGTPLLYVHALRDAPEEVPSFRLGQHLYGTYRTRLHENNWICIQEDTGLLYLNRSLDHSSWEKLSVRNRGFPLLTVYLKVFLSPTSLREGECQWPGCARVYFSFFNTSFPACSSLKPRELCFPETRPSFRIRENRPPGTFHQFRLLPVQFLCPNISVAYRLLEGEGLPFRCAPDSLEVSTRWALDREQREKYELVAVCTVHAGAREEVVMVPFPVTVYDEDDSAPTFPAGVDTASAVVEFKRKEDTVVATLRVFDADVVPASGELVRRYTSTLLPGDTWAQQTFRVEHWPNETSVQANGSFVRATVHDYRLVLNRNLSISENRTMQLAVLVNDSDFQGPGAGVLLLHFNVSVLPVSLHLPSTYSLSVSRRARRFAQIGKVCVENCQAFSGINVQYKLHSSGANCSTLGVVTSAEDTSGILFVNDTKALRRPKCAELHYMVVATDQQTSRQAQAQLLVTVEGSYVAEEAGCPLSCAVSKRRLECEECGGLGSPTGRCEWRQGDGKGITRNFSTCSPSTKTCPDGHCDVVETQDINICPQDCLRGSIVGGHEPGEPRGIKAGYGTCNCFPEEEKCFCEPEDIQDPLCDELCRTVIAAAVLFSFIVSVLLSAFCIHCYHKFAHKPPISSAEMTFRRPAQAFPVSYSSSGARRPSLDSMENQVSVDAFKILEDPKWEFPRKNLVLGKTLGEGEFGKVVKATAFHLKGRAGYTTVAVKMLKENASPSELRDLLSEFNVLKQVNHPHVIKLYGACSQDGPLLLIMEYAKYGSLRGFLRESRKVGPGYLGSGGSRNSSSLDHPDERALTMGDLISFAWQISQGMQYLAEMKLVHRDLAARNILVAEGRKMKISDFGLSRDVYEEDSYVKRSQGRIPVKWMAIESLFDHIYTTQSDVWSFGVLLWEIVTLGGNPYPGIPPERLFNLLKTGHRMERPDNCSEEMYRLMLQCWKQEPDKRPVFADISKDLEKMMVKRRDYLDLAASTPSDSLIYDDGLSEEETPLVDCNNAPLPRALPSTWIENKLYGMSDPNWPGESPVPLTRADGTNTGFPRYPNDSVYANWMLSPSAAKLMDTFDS
The experiment in a line: HTRF kinase activity test, RET V804M. Format: biochemical. The note with it: Table 3; read-out: RET Enzyme (V804M) IC50. The procedure:
This test combined peptide substrates and a single proprietary monoclonal antibody with HTRF technology, which was a highly sensitive and stable technology for detecting molecular interactions of proteins. The enzyme phosphorylates the substrate, then the Eu-labeled antibody binds to the phosphorylated substrate, and streptavidin-XL665 binds to all substrates. The TR-FRET signal was generated by the HTRF principle. Once the inhibitor (test compound) was added, a weaker TR-FRET signal is obtained. Based on this, the inhibitory effect was evaluated.
(§1) The other compounds were diluted 3-fold gradiently with DMSO from the 10 mM stock solution to a total of 10 concentrations respectively.
(§2) Adding 4 volumes of distilled water to 1 volume of enzyme buffer 5×; 5 mM MgCl2; 1 mM DTT.
a) Transferring 10 nl of the compound dilution (prepared in 5.2) to each well of the test plate (784075, Greiner);
(§3) b) centrifuging the compound plate for 1 minute at 1000 g.
(§4) c) sealing the test board.
d) preparing 5×Ret wt (0.2 ng/μl) and 5×Ret V804L (0.5 ng/μl)/5×Ret V804M (0.5 ng/μl) in 1× kinase buffer respectively.
e) adding 2 μl of 5×Ret wt or 2 μl of Ret V804L/RET V804M to a 384-well test plate (784075, Greiner).
(§5) f) adding 4 μl of 1× kinase buffer to each well of the test plate, centrifuging the sample plate at 1000 g for 30 seconds, and placing it at room temperature for 10 minutes.
(§6) g) preparing a solution of 5× TK-substrate-biotin ([…]) in kinase buffer and 5×ATP (50 μM) in kinase buffer respectively.
(§7) h) starting the reaction by adding 2 μl STK-substrate-biotin and 2 μl ATP (prepared in the step g).
(§8) i) centrifuging the sample plate for 30 seconds at 1000 g. Sealing the test board and placing it at room temperature for 30 minutes.
j) preparing 4×Sa-XL 665 (250 nM) in HTRF detection buffer.
k) adding 5 μl of Sa-XL 665 and 5 μl of TK-antibody-Cryptate (prepared in the step i) to each well of the test plate.
(§9) ) centrifuging at 1000 g for 30 seconds and placing it at room temperature for 1 hour.
m) reading the fluorescence signal values at 615 nm (Cryptate) and 665 nm (XL665) on the Envision 2104 plate reader.
Calculating the ratio of each hole (665 nm/615 nm).
(§10) The inhibition rate % was calculated as follows:
(§11) Inhibition rate %=[1−(fluorescence signal value of test compound−fluorescence signal value of positive control)/(average ratio of negative control−average ratio of positive control)]*100%
(§12) Ratio: generated from the measured fluorescence signal value
(§13) The average ratio of the positive control is the average ratio of the positive control (200 nM AT13148) in the sample plate;
(§14) The average ratio of negative controls is the average ratio of negative controls (0.1% DMSO) in the sample plate.
(§15) GraphPad 6.0 was used to fit the logarithm of the % inhibition rate and the compound concentration into a nonlinear regression (dose response−variable slope) to calculate the IC50 value.
(Time-resolved FRET reads energy transfer from a long-lived donor to a nearby acceptor.)

For assay [3], the system named is RET wild-type, mutant and/or fusion-type. Put plainly: Overall statement on RET inhibitory activity (summary of Table 3). Particulars: statement in words summarising Table 3. The source says: As shown in the above table, the example compounds of the present disclosure have improved inhibitory activity against RET wild-type, mutant and/or fusion-type.
Assay [4] has as its target T2, Ret wt (Homo sapiens, UniProt P07949).
T2 construct: purchased Invitrogen PV3082
The experiment in a line: HTRF kinase activity test, RET wild type. The assay is classed as biochemical. Particulars: Table 3; read-out: RET Enzyme (wild type) IC50. The procedure:
This test combined peptide substrates and a single proprietary monoclonal antibody with HTRF technology, which was a highly sensitive and stable technology for detecting molecular interactions of proteins. The enzyme phosphorylates the substrate, then the Eu-labeled antibody binds to the phosphorylated substrate, and streptavidin-XL665 binds to all substrates. The TR-FRET signal was generated by the HTRF principle. […] Based on this, the inhibitory effect was evaluated.
as §1, §2, §3, §4, §5, §6, §7, §8, §9, §10, §11, §12, §13, §14, §15

T2 sequence (P07949 29-1114): as the sequence (P07949 29-1114 V804M) above, with M776V counted along it

For `COc1ccc(CN2C3CC2CN(c2cnc(-c4cc(OC[C@@H]5CNCCO5)cn5nc(N)c(C#N)c45)cn2)C3)cn1` [APS087, 2-amino-4-(5-(6-((6-methoxypyridin-3-yl)methyl)-3,6-diazabicyclo[3.1.1]heptan-3-yl)pyrazin-2-yl)-6-(((S)-morpholin-2-yl)methoxy)pyrazolo[1,5-a]pyridine-3-carbonitrile trifluoroacetate], the IC50 in assay [1], in assay [2] and in assay [4] was less than 0.001 µM throughout. The “inhibitory activity against RET wild-type, mutant and/or fusion-type” value (shortened to “inhibitory activity”) in assay [3] was “excellent activity”.

Consider `COc1ccc(CN2C3CC2CN(c2ccc(-c4cc(OCC(C)(C)O)cn5nc(N)c(C#N)c45)cn2)C3)cn1` [APS089], for which the values for the 50% inhibitory concentration (IC50) in assay [1], in assay [2] and in assay [4] were 0.0186 µM, 0.0016 µM and 0.0018 µM, respectively. In addition, in assay [3], the “inhibitory activity” value is “excellent activity”.

As to `COc1ccc(CN2C3CC2CN(c2ccc(-c4cc(OCC(C)(C)O)cn5nc(F)c(C#N)c45)cn2)C3)cn1` [APS090], the IC50 in assay [1] is 0.0314 µM; in assay [2] it was 0.486 µM; in assay [4] it was 0.054 µM.

For `CCOc1cc(-c2cnc(N3CC4CC(C3)N4Cc3ccc(OC)nc3)cn2)c2c(C#N)c(N)nn2c1` [APS092, 2-amino-6-ethoxy-4-(5-(6-((6-methoxypyridin-3-yl)methyl)-3,6-diazabicyclo[3.1.1]heptane-3-yl)pyrazin-2-yl)pyrazolo[1,5-a]pyridine-3-carbonitrile], the IC50 in assay [1] was determined as 0.06 µM; in assay [2] it was 0.0027 µM; in assay [4] it was 0.0043 µM. Also, the “inhibitory activity” value in assay [3] is “excellent activity”.

As to `COc1ccc(CN2C3CC2CN(c2ccc(-c4cc(OCC(C)(C)O)cn5nc(NCCO)c(C#N)c45)cn2)C3)cn1` [APS094, 6-(2-Hydroxy-2-methylpropoxy)-2-((2-2-hydroxyethyl)amino)-4-(6-(6-((6-methoxypyridine-3-yl)methyl)-3,6-diazabicyclo[3.1.1]heptan-3-yl)pyridin-3-yl)pyrazolo[1,5-a]pyridine-3-carbonitrile], the IC50 stood at 0.493 µM in assay [2] and 0.942 µM in assay [4].

As to `CCOc1cc(-c2ccc(N3CC4CC(C3)N4Cc3ccc(OC)nc3)nc2)c2c(C#N)c(N)nn2c1` [APS095], the IC50 in assay [1] was 0.0386 µM; in assay [2], less than 0.001 µM; in assay [4] it was less than 0.001 µM. Besides, the “inhibitory activity” value in assay [3] is “excellent activity”.

Regarding `CCOc1cc(-c2ccc(N3CC4CC(C3)N4Cc3ccc(OC)nc3)nc2)c2c(C#N)c(F)nn2c1` [APS096], the figures for the concentration for half-maximal inhibition (IC50) in assay [2] and in assay [4] were 0.186 µM and 0.122 µM, respectively.

With `COCCOc1cc(-c2ccc(N3CC4CC(C3)N4Cc3ccc(OC)nc3)nc2)c2c(C#N)c(N)nn2c1` [APS097, 2-amino-6-(2-methoxyethoxy)-4-(6-(6-((6-methoxypyridin-3-yl)methyl)-3,6-diazabicyclo[3.1.1]heptan-3-yl)pyridin-3-yl)pyrazolo[1,5-a]pyridine-3-carbonitrile], the values for the IC50 in assay [1], in assay [2] and in assay [4] were 0.0755 µM, less than 0.001 µM and less than 0.001 µM, respectively. The “inhibitory activity” value in assay [3] is reported as “excellent activity”.

`COCCOc1cc(-c2ccc(N3CC4CC(C3)N4Cc3ccc(OC)nc3)nc2)c2c(C#N)c(F)nn2c1` [APS098, 2-fluoro-6-(2-methoxyethoxy)-4-(6-(6-((6-methoxypyridin-3-yl)methyl)-3,6-diazabicyclo [3.1.1]heptan-3-yl)pyridin-3-yl)pyrazolo[1,5-a]pyridine-3-carbonitrile]: the figures for the IC50 in assay [2] and in assay [4] were 0.0856 µM and 0.144 µM, respectively.

`COCCOc1cc(-c2ccc(N3CC4CC(C3)N4Cc3ccc(OC)nc3)nc2)c2c(C#N)c(NC(C)=O)nn2c1` [APS103]: the IC50 came to 0.155 µM in assay [2] and 0.261 µM in assay [4].

As to `COc1ccc(CN2C3CC2CN(c2cnc(-c4cc(OC[C@@H]5CN(C)CCO5)cn5nc(F)c(C#N)c45)cn2)C3)cn1` [APS104, 2-fluoro-4-(5-(6-((6-methoxypyridin-3-yl)methyl)-3,6-diazabicyclo[3.1.1]heptan-3-yl)pyrazin-2-yl)-6-(((S)-4-methylmorpholin-2-yl)methoxy)pyrazolo[1,5-a]pyridine-3-carbonitrile], the IC50 was found to be 0.014 µM in assay [2] and 0.0069 µM in assay [4]. Further, the “inhibitory activity” value in assay [3] is “excellent activity”.

As to `CCOc1cc(-c2ccc(N3CC4CC(C3)N4Cc3cnc(OC)c(Cl)c3)nc2)c2c(C#N)c(N)nn2c1` [APS105], the IC50 in assay [1] is 0.0281 µM; in assay [2], less than 0.001 µM; in assay [4] it was less than 0.001 µM. In addition, the “inhibitory activity” value in assay [3] was “excellent activity”.

With `COc1ccc(CN2C3CC2CN(c2ccc(-c4cc(OCC(C)(C)O)cn5nc(N)c(C(N)=O)c45)cn2)C3)cn1` [APS106], the 50% inhibitory concentration (IC50) amounted to 0.971 µM in assay [2] and 0.745 µM in assay [4].

In the case of `COc1ccc(CN2C3CC2CN(c2cnc(-c4cc(OC[C@@H]5CN(C)CCO5)cn5nc(N)c(C#N)c45)cn2)C3)cn1` [APS107, 2-amino-4-(5-(6-((6-methoxypyridin-3-yl)methyl)-3,6-diazabicyclo[3.1.1]heptan-3-yl)pyrazin-2-yl)-6-(((S)-4-methylmorpholin-2-yl)methoxy)pyrazolo[1,5-a]pyridine-3-carbonitrile], the values for the IC50 in assay [1], in assay [2] and in assay [4] were 0.0163 µM, less than 0.001 µM and less than 0.001 µM, respectively. The “inhibitory activity” value in assay [3] was “excellent activity”.

As to `COCCOc1cc(-c2ccc(N3CC4CC(C3)N4Cc3cnc(OC)c(Cl)c3)nc2)c2c(C#N)c(N)nn2c1` [APS108, 2-amino-4-(6-(6-((5-chloro-6-methoxypyridin-3-yl)methyl)-3,6-diazabicyclo[3.1.1]heptane-3-yl)pyridin-3-yl)-6-(2-methoxyethoxy)pyrazolo[1,5-a]pyridine-3-carbonitrile], the IC50 was 0.0107 µM in assay [1], less than 0.001 µM in assay [2] and less than 0.001 µM in assay [4]. The “inhibitory activity” value in assay [3] is “excellent activity”.

With `COc1ccc(CN2C3CC2CN(c2ccc(-c4cc(OCC(F)F)cn5nc(N)c(C#N)c45)cn2)C3)cn1` [APS114, 2-amino-6-(2,2-difluoroethoxy)-4-(6-(6-((6-methoxypyridin-3-yl)methyl)-3,6-diazabicyclo[3.1.1]heptan-3-yl)pyridin-3-yl)pyrazolo[1,5-a]pyridine-3-carbonitrile], the IC50 is less than 0.001 µM in assay [2] and 0.002 µM in assay [4]. Further, in assay [3], the “inhibitory activity” value was “excellent activity”.

For `COc1ccc(CN2C3CC2CN(c2ccc(-c4cc(OC(F)F)cn5nc(N)c(C#N)c45)cn2)C3)cn1` [APS115, 2-amino-6-(difluoromethoxy)-4-(6-(6-((6-methoxypyridin-3-yl)methyl)-3,6-diazabicyclo[3.1.1]heptan-3-yl)pyridin-3-yl)pyrazolo[1,5-a]pyridine-3-carbonitrile], the results for the concentration for half-maximal inhibition (IC50) in assay [2] and in assay [4] were 0.0088 µM and 0.0459 µM, respectively.

Values taken from patent US20210379056A1, “SUBSTITUTED PYRAZOLE FUSED RING DERIVATIVE, PREPARATION METHOD THEREFOR, AND APPLICATION THEREOF” (Applied Pharmaceutical Science, Inc., priority 2018, published 2021).
